# From patent US5512588A, “Furylthiazoles and their use as H2 - receptor antagonists and antimicrobials” (Fujisawa Pharmaceutical Co., Ltd., priority 1991, dated 1996)
# How the values were obtained:
# [1] = tested on: HCl-aspirin ulcer; experiment: Test D (Inhibition of HCl-aspirin ulcer); assay type: in vivo, male Sprague-Dawley rats; conditions: length of ulcers vs control; test compound 32 mg/kg orally 30 minutes before aspirin 200 mg/kg in 0.2N HCl; rats
# Protocol: Test D (Inhibition of HCl-aspirin ulcer):
# Seven male Sprague-Dawley rats, aged 6 weeks and weighing about 200 g were used per group for the study on HCl-aspirin ulcer after the fast for 24 hours. Each of the test compounds (32 mg/kg) suspended in 0.1% methylcellulose solution was administered orally 30 minutes before aspirin administration. Aspirin, suspended in 0.1% methylcellulose solution containing 0.2N HCl, was administered orally at a dose of 200 mg/kg/10 ml. One hour later, the animals were sacrificed and their stomachs were removed. The stomach was then fixed with 2% formalin. The length of ulcers was measured for each animal, and percentage of inhibition was calculated by comparing the mean length of ulcers (mm) in the test animals with that in the control animals.
# [2] = tested on: H2 -receptor; experiment: Test A (H2 -receptor antagonism in isolated guinea-pig atrium); conditions: inhibition of histamine (1×10^-6 g/ml)-induced increase in beating rate, test compound 1×10^-6 g/ml, 30 minutes, 30°C
# Protocol: Test A (H2 -receptor antagonism in isolated guinea-pig atrium):
# The atrial strip isolated from guinea-pig was suspended under an initial tension 0.3 to 0.6 g in an organ bath containing Tyrode solution at 30°C., aerated 95% O2 -5% CO2 gas. The beating rate and amplitude of contraction of the atrium were recorded by means of a transducer and a polygraph. Histamine (1×10^-6 g/ml) was added to the bathing fluid and the increase in beating rate after dosing was measured. Addition of test compounds (1×10^-6 g/ml) was made 30 minutes after washing out histamine. Inhibitory effect of test compound was calculated by comparing histamine-induced increases in beating rate before and 30 minutes after dosing with the test compounds.
# [3] = tested on: Campylobacter pyloridis 8008; experiment: Test C (Anti-microbial activity), agar dilution method; assay type: cell-based; conditions: Helicobacter pylori, 72 h, Brucella agar plus 5% lysed horse blood, 37° C. for 3 days, 10% CO2, 10^4 cfu/ml
# Protocol: Test C (Anti-microbial activity):
# In vitro antimicrobial activity was determined by the agar dilution method. Test strain was precultured in Brucella broth Agar containing 5% horse serum at 37° C. for 3 days, and 10^4 cfu/ml were inoculated with a multipoint replicater onto Brucella agar plus 5% lysed horse blood plate containing serial 2-fold dilutions of each drug at 37° C. for 3 days. Incubation was carried out in an atmosphere of 10% CO2. MIC was read after incubation as the lowest drug concentration that inhibited macroscopic colonial growth.
# [4] = tested on: histamine-stimulated gastric secretion; experiment: Test B (Gastric secretion from lumen perfused stomach in anesthetized rats); assay type: in vivo, Male Sprague-Dawley rats; conditions: maximal inhibition of acid output, histamine 3 mg/kg/hr i.v., test compound 1 mg/kg intravenously
# Protocol: Test B (Gastric secretion from lumen perfused stomach in anesthetized rats):
# Male Sprague-Dawley rats weighing about 250 g were used. Rats were deprived of food but allowed free access to water for 24 hours. The animals were anesthetized with 1.25 g/kg urethane intraperitoneally. The abdomen was opened and the gastric lumen was perfured with saline throughout the experiment. The perfusate was titrated by an autotitrator with 25 mM sodium hydroxide as a titrant. Gastric secretion was stimulated by intravenous infusion with histamine (3 mg/kg/hr). After reaching plateau, test compound (1 mg/kg) was given intravenously. Drug effect was expressed as maximal inhibition by acid output.
SMILES,MIC [3],further results
"CCCCNC(N)=Nc1nc(-c2ccc(CNC(C)=O)o2)cs1 [Test Compound (a), 4-(5-Acetylaminomethylfuran-2-yl)-2-(amino)(n-butylamino)methyleneamino!thiazole]",–,Inhibition (%) [1]: 86.9%
"CCCCCCNC(N)=Nc1nc(-c2ccc(CNC(C)=O)o2)cs1 [Test Compound (b), 4-(5-Acetylaminomethylfuran-2-yl)-2-(amino)(n-hexylamino)methyleneamino!thiazole]",0.1 µg/mL,H2 Antagonism (%) [2]: 78.5%
C=CCNC(N)=Nc1nc(-c2ccc(CNC(C)=O)o2)cs1 [Test Compound (e)],0.78 µg/mL,–
"COCCNC(N)=Nc1nc(-c2ccc(CNC(C)=O)o2)cs1 [Test Compound (c), 4-(5-Acetylaminomethylfuran-2-yl)-2-(amino)-(2-methoxyethylamino)methyleneamino!thiazole]",–,Inhibition (%) [4]: 69%
"CC(=O)NCc1ccc(-c2csc(N=C(N)NCCc3ccccn3)n2)o1 [Test Compound (d), 4-(5-Acetylaminomethylfuran-2-yl)-2-(amino)-2-(2-pyridyl)ethylamino!methyleneamino!thiazole]",0.78 µg/mL,–
